Data on twelve compounds can be found in BindingDB's records for doi:10.1002/cmdc.200500017 (2006).

SMILES strings stand for the structures. pIC50: −log10 of the molar value.

In general, pIC50 refers to the IC50 on a negative log10 scale, so that one unit is a factor of ten. Lower therefore signals a large IC50.

In this assay the target is T1, Fatty-acid amide hydrolase 1 [30-579] (Rattus norvegicus, UniProt P97612).
T1 construct: 30-579
T1 sequence (P97612 whole entry): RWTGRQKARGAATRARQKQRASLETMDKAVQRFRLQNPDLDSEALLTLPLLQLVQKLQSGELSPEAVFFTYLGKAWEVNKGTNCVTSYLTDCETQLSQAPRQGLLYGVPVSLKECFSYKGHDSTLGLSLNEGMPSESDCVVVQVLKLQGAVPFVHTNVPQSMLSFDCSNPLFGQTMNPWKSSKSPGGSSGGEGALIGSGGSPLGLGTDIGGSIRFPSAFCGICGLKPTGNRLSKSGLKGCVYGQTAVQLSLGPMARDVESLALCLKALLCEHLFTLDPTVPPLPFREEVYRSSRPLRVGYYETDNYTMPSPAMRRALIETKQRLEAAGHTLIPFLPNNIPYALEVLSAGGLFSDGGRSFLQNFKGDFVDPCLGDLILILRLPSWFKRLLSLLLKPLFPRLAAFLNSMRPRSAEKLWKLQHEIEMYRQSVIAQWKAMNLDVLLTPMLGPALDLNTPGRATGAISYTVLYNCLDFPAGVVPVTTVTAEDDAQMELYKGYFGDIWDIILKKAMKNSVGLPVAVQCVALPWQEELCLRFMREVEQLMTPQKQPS
As to the kind of experiment: FAAH Inhibition Assay. Here is the method: Membrane fractions were prepared from Wistar rat brain homogenates, and FAAH activity were assayed by using [3H]anandamide (anandamide[ethanolamine-3H], 60 Cimmol-1, from American Radiolabeled Chemicals, St. Louis, USA) as a substrate.
Regarding `Nc1ccc(OC(=O)NC2CCCCC2)cc1-c1ccccc1` [FAAH Inhibitor, 2d], the negative logarithm of the IC50 (pIC50) was 7.28.

As to `Cc1ccc(OC(=O)NC2CCCCC2)cc1-c1ccccc1` [FAAH Inhibitor, 2f], the pIC50 is 6.75.

`O=C(NC1CCCCC1)Oc1ccc(O)c(-c2ccccc2)c1` [FAAH Inhibitor, 2g] gave a pIC50 of 7.35.

For `O=C(NC1CCCCC1)Oc1cc(-c2ccccc2)ccc1[N+](=O)[O-]` [FAAH Inhibitor, 2a], the pIC50 is less than 4.52.

With `O=C(NC(=O)c1ccc(OC(=O)NC2CCCCC2)cc1-c1ccccc1)NC1CCCCC1` [FAAH Inhibitor, 2j], the pIC50 is 5.56.

`O=C(NC1CCCCC1)Oc1ccc([N+](=O)[O-])c(-c2ccccc2)c1` [FAAH Inhibitor, 2c] showed a pIC50 of less than 4.52.

`O=C(NC1CCCCC1)Oc1ccc2ccn(-c3ccccc3)c2c1` [FAAH Inhibitor, 2k] had a pIC50 of 5.99.

Regarding `O=C(NC1CCCCC1)Oc1cccc(Oc2cccc(-c3ccccc3)c2)c1` [FAAH Inhibitor, 2l], the pIC50 is 5.56.

`NC(=O)c1ccc(OC(=O)NC2CCCCC2)cc1-c1ccccc1` [FAAH Inhibitor, 2e] gave a pIC50 of 6.60.

The compound `Nc1ccc(-c2ccccc2)cc1OC(=O)NC1CCCCC1` [FAAH Inhibitor, 2b] had a pIC50 of 5.32.

`CN(C)c1ccc(OC(=O)NC2CCCCC2)cc1-c1ccccc1` [FAAH Inhibitor, 2i] had a pIC50 of 5.80.

For the compound `O=C(NC1CCCCC1)Oc1ccc(CO)c(-c2ccccc2)c1` [FAAH Inhibitor, 2h], the pIC50 was 7.34.
